In the supplement of paper PMC10307832:

Tests used:
Test in all cases: relative viability (nuclei count vs DMSO), 5 days (fraction); higher = more cells survive
BEN = tested on: BEN
Outline: (§1)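 Lung cancer cell lines in 1536-well plates were dosed by pin tool the day after seeding, either with one drug alone or with a fixed anchor-drug dose plus five library-drug doses (not always all listed) in √10 steps. After 5 days, cells were fixed and their nuclei stained in one step (final 0.05% Triton X-100, 1% formaldehyde, 1 ug/ml Hoechst), then counted on 4× images. Relative viability is the nuclei count in treated wells divided by that in vehicle wells. Values are medians of duplicate plates.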

NCI-H358 = tested on: NCI-H358
Outline: as §1

LCLC-97TM1 = tested on: LCLC-97TM1
Outline: as §1

LC-2-ad = tested on: LC-2-ad
Outline: as §1

LXF-289 = tested on: LXF-289
Outline: as §1

NCI-H2087 = tested on: NCI-H2087
Outline: as §1

NCI-H650 = tested on: NCI-H650
Outline: as §1

NCI-H596 = tested on: NCI-H596
Outline: as §1

HCC-15 = tested on: HCC-15
Outline: as §1

NCI-H838 = tested on: NCI-H838
Outline: as §1

ChaGo-K-1 = tested on: ChaGo-K-1
Outline: as §1

UMC-11 = tested on: UMC-11
Outline: as §1

NCI-H1651 = tested on: NCI-H1651
Outline: as §1

NCI-H2342 = tested on: NCI-H2342
Outline: as §1

LU99A = tested on: LU99A
Outline: as §1

HCC-78 = tested on: HCC-78
Outline: as §1

NCI-H322M = tested on: NCI-H322M
Outline: as §1

PC-3 [JPC-3] = tested on: PC-3 [JPC-3]
Outline: as §1

LK-2 = tested on: LK-2
Outline: as §1

SK-MES-1 = tested on: SK-MES-1
Outline: as §1

NCI-H661 = tested on: NCI-H661
Outline: as §1

NCI-H1944 = tested on: NCI-H1944
Outline: as §1

NCI-H1666 = tested on: NCI-H1666
Outline: as §1

C=C1C(=O)O[C@@H](CCCCCCCC)[C@@H]1C(=O)O [C-75] + Cc1cc(Nc2cc(N3CCN(C)CC3)nc(Sc3ccc(NC(=O)C4CC4)cc3)n2)n[nH]1 [Tozasertib] (partner 0.1 µM)
relative viability (BEN; first compound 0.08 µM): 0.494
relative viability (BEN; first compound 0.253 µM): 0.605
relative viability (BEN; first compound 0.8 µM): 0.544
relative viability (BEN; first compound 2.53 µM): 0.484
relative viability (BEN; first compound 8 µM): 0.612
relative viability (NCI-H358; first compound 0.08 µM): 0.0979
relative viability (NCI-H358; first compound 0.253 µM): 0.104
relative viability (NCI-H358; first compound 0.8 µM): 0.104
relative viability (NCI-H358; first compound 2.53 µM): 0.0847
relative viability (NCI-H358; first compound 8 µM): 0.103
relative viability (LCLC-97TM1; first compound 0.08 µM): 0.23
relative viability (LCLC-97TM1; first compound 0.253 µM): 0.319
relative viability (LCLC-97TM1; first compound 0.8 µM): 0.22
relative viability (LCLC-97TM1; first compound 2.53 µM): 0.16
relative viability (LCLC-97TM1; first compound 8 µM): 0.187
relative viability (LC-2-ad; first compound 0.08 µM): 0.515
relative viability (LC-2-ad; first compound 0.253 µM): 0.503
relative viability (LC-2-ad; first compound 0.8 µM): 0.443
relative viability (LC-2-ad; first compound 2.53 µM): 0.418
relative viability (LC-2-ad; first compound 8 µM): 0.399
relative viability (LXF-289; first compound 0.08 µM): 0.193
relative viability (LXF-289; first compound 0.253 µM): 0.18
relative viability (LXF-289; first compound 0.8 µM): 0.183
relative viability (LXF-289; first compound 2.53 µM): 0.119
relative viability (LXF-289; first compound 8 µM): 0.182
relative viability (NCI-H2087; first compound 0.08 µM): 0.245
relative viability (NCI-H2087; first compound 0.253 µM): 0.294
relative viability (NCI-H2087; first compound 0.8 µM): 0.179
relative viability (NCI-H2087; first compound 2.53 µM): 0.228
relative viability (NCI-H2087; first compound 8 µM): 0.305
relative viability (NCI-H650; first compound 0.08 µM): 0.759
relative viability (NCI-H650; first compound 0.253 µM): 0.651
relative viability (NCI-H650; first compound 0.8 µM): 0.718
relative viability (NCI-H650; first compound 2.53 µM): 0.616
relative viability (NCI-H650; first compound 8 µM): 0.62
relative viability (NCI-H596; first compound 0.08 µM): 0.889
relative viability (NCI-H596; first compound 0.253 µM): 1.09
relative viability (NCI-H596; first compound 0.8 µM): 0.728
relative viability (NCI-H596; first compound 2.53 µM): 0.83
relative viability (NCI-H596; first compound 8 µM): 0.821
relative viability (HCC-15; first compound 0.08 µM): 0.457
relative viability (HCC-15; first compound 0.253 µM): 0.608
relative viability (HCC-15; first compound 0.8 µM): 0.407
relative viability (HCC-15; first compound 2.53 µM): 0.427
relative viability (HCC-15; first compound 8 µM): 0.39
relative viability (NCI-H838; first compound 0.08 µM): 0.311
relative viability (NCI-H838; first compound 0.8 µM): 0.229
relative viability (NCI-H838; first compound 2.53 µM): 0.293
relative viability (NCI-H838; first compound 8 µM): 0.266
relative viability (ChaGo-K-1; first compound 0.08 µM): 0.215
relative viability (ChaGo-K-1; first compound 0.253 µM): 0.223
relative viability (ChaGo-K-1; first compound 0.8 µM): 0.196
relative viability (ChaGo-K-1; first compound 2.53 µM): 0.195
relative viability (ChaGo-K-1; first compound 8 µM): 0.231
relative viability (UMC-11; first compound 0.08 µM): 0.213
relative viability (UMC-11; first compound 0.253 µM): 0.202
relative viability (UMC-11; first compound 0.8 µM): 0.209
relative viability (UMC-11; first compound 2.53 µM): 0.161
relative viability (UMC-11; first compound 8 µM): 0.227
relative viability (NCI-H1651; first compound 0.08 µM): 0.694
relative viability (NCI-H1651; first compound 0.253 µM): 0.995
relative viability (NCI-H1651; first compound 0.8 µM): 0.706
relative viability (NCI-H1651; first compound 2.53 µM): 0.688
relative viability (NCI-H1651; first compound 8 µM): 0.682
relative viability (NCI-H2342; first compound 0.08 µM): 0.652
relative viability (NCI-H2342; first compound 0.253 µM): 0.503
relative viability (NCI-H2342; first compound 0.8 µM): 0.604
relative viability (NCI-H2342; first compound 2.53 µM): 0.496
relative viability (NCI-H2342; first compound 8 µM): 0.472
relative viability (LU99A; first compound 0.08 µM): 0.272
relative viability (LU99A; first compound 0.253 µM): 0.251
relative viability (LU99A; first compound 0.8 µM): 0.253
relative viability (LU99A; first compound 2.53 µM): 0.283
relative viability (LU99A; first compound 8 µM): 0.288
relative viability (HCC-78; first compound 0.08 µM): 0.431
relative viability (HCC-78; first compound 0.253 µM): 0.505
relative viability (HCC-78; first compound 0.8 µM): 0.458
relative viability (HCC-78; first compound 2.53 µM): 1.28
relative viability (HCC-78; first compound 8 µM): 0.444
relative viability (NCI-H322M; first compound 0.08 µM): 0.46
relative viability (NCI-H322M; first compound 0.253 µM): 0.453
relative viability (NCI-H322M; first compound 0.8 µM): 0.458
relative viability (NCI-H322M; first compound 2.53 µM): 0.302
relative viability (NCI-H322M; first compound 8 µM): 0.487
relative viability (PC-3 [JPC-3]; first compound 0.08 µM): 0.902
relative viability (PC-3 [JPC-3]; first compound 0.253 µM): 0.921
relative viability (PC-3 [JPC-3]; first compound 0.8 µM): 0.896
relative viability (PC-3 [JPC-3]; first compound 2.53 µM): 0.858
relative viability (PC-3 [JPC-3]; first compound 8 µM): 0.992
relative viability (LK-2; first compound 0.08 µM): 0.214
relative viability (LK-2; first compound 0.253 µM): 0.157
relative viability (LK-2; first compound 0.8 µM): 0.195
relative viability (LK-2; first compound 2.53 µM): 0.155
relative viability (LK-2; first compound 8 µM): 0.19
relative viability (SK-MES-1; first compound 0.08 µM): 0.924
relative viability (SK-MES-1; first compound 0.253 µM): 0.989
relative viability (SK-MES-1; first compound 0.8 µM): 0.823
relative viability (SK-MES-1; first compound 2.53 µM): 0.863
relative viability (SK-MES-1; first compound 8 µM): 0.898
relative viability (NCI-H661; first compound 0.08 µM): 0.355
relative viability (NCI-H661; first compound 0.253 µM): 0.347
relative viability (NCI-H661; first compound 0.8 µM): 0.334
relative viability (NCI-H661; first compound 2.53 µM): 0.288
relative viability (NCI-H661; first compound 8 µM): 0.339
relative viability (NCI-H1944; first compound 0.08 µM): 0.256
relative viability (NCI-H1944; first compound 0.253 µM): 0.235
relative viability (NCI-H1944; first compound 0.8 µM): 0.243
relative viability (NCI-H1944; first compound 8 µM): 0.246
relative viability (NCI-H1666; first compound 0.08 µM): 0.653
relative viability (NCI-H1666; first compound 0.253 µM): 0.66
relative viability (NCI-H1666; first compound 0.8 µM): 0.647
relative viability (NCI-H1666; first compound 2.53 µM): 0.613
relative viability (NCI-H1666; first compound 8 µM): 0.499
